What all share (assay): In vitro antibacterial activity, microbroth dilution method (NCCLS method)
Holding throughout (type): cell-based

One assay has as its system S. pneumoniae ATCC 49619. The settings on record: Streptococcus pneumoniae, ATCC49619; bacteria symbol B = S. pneumoniae ATCC 49619; read-out: MIC values (minimum inhibitory concentration). As to the method:
(§1) In vitro antibacterial activities of the compounds of the present invention against various test bacteria were measured according to the microbroth dilution method (NCCLS method). As test compounds, the compounds of Examples 7, 23, 114, 126, 131, 210, 214, 231, 257, 261, 287, 363, 366, 563 and Comparative agent 1: clarithromycin were used. The results are shown as MIC values (minimum inhibitory concentration, μg/ml) in Table 21.

The test system of the next assay is H. influenzae ATCC 43095. The note with it: Haemophilus influenzae, ATCC43095; bacteria symbol A = H. influenzae ATCC 43095; read-out: MIC values (minimum inhibitory concentration). As to the method:
as §1

A further assay relates to S. pneumoniae 205. The settings on record: Streptococcus pneumoniae; bacteria symbol C = S. pneumoniae 205; read-out: MIC values (minimum inhibitory concentration). As to the method:
as §1

≈ marks a conversion by molar mass, not a printed value.

Turning to `CC[C@H]1OC(=O)[C@H](C)[C@@H](O[C@H]2C[C@@](C)(OC)[C@@H](O)[C@H](C)O2)[C@H](C)[C@@H](O[C@@H]2O[C@H](C)C[C@H](N(C)C)[C@H]2O)[C@](C)(OC)C[C@@H](C)C(=O)[C@H](C)[C@@H](O)[C@]1(C)O` [Comparative agent 1, clarithromycin], the MIC in the assay on S. pneumoniae ATCC 49619 was 0.03 µg/mL (≈ 0.0401 µM); in the assay on H. influenzae ATCC 43095, 4 µg/mL (≈ 5.35 µM); in the assay on S. pneumoniae 205, more than 128 µg/mL.
As for `CO[C@]1(C)C[C@H](O[C@H]2[C@H](C)[C@@H](O[C@@H]3O[C@H](C)C[C@H](N(C)C)[C@H]3O)[C@@](C)(OC)C[C@@H](C)[C@H](O)[C@H](C)N(C)C(C)C(C)OC(=O)[C@@H]2C)O[C@@H](C)[C@@H]1O` (stereo partly drawn) [Example 261], the MIC with S. pneumoniae ATCC 49619 came to 0.12 µg/mL (≈ 0.167 µM); in the assay on H. influenzae ATCC 43095, 4 µg/mL (≈ 5.56 µM); in the assay with S. pneumoniae 205, 64 µg/mL (≈ 89 µM).

The record behind these values is patent US8097708B2, “10a-Azalide compound” (Taisho Pharmaceutical Co., Ltd., priority 2006, dated 2012).
